How the values were obtained:
SERT = SERT (Homo sapiens, UniProt P31645); assay: hSERT radioligand binding assay (3H-citalopram); parameters: expressed in transfected cells; host or cells: HEK-293; settings: hSERT membranes (HEK-293), 1.0 nM 3H-citalopram; for Ki: read-out: SERT pKi (converted)
Experimental: (§1) Membrane radioligand binding assays were used to measure inhibition of labeled ligand (^3H-citalopram or ^3H-nisoxetine or ^3H-WIN35428) binding to membranes prepared from cells expressing the respective human recombinant transporter (hSERT or hNET or hDAT) in order to determine the pKi values of test compounds at the transporters.
(§2) Recombinant human embryonic kidney (HEK-293) derived cell lines stably transfected with hSERT or hNET, respectively, were grown in DMEM medium supplemented with 10% dialyzed FBS (for hSERT) or FBS (for hNET), 100 μg/ml penicillin, 100 μg/ml streptomycin, 2 mM L-glutamine and 250 μg/ml of the aminoglycoside antibiotic G418, in a 5% CO2 humidified incubator at 37° C. When cultures reached 80% confluence, the cells were washed thoroughly in PBS (without […] and Mg^2+) and lifted with 5 mM EDTA in PBS. Cells were pelleted by centrifugation, resuspended in lysis buffer (10 mM Tris-HCl, pH7.5 containing 1 mM EDTA), homogenized, pelleted by centrifugation, then resuspended in 50 mM Tris-HCl, pH 7.5 and 10% sucrose at 4° C. Protein concentration of the membrane suspension was determined using a Bio-Rad Bradford Protein Assay kit. Membranes were snap frozen and stored at −80° C. Chinese hamster ovary membranes expressing hDAT (CHO-DAT) were purchased from PerkinElmer and stored at −80° C.
(§3) Binding assays were performed in a 96-well assay plate in a total volume of 200 μl assay buffer (50 mM Tris-HCl, 120 mM NaCl, 5 mM KCl, pH 7.4) with 0.5, 1, and 3 μg membrane protein, for SERT, NET and DAT, respectively.
(§4) Stock solutions (10 mM in DMSO) of test compound were prepared and serial dilutions made using Dilution Buffer (50 mM Tris-HCl, 120 mM NaCl, 5 mM KCl, pH 7.4, 0.1% BSA, 400 μM ascorbic acid).
(§5) Following a 60 minute incubation at 22° C. (or a period sufficient to reach equilibrium), the membranes were harvested by rapid filtration over a 96-well UniFilter GF/B plate, pretreated with 0.3% polyethyleneimine, and washed 6 times with 300 μl wash buffer (50 mM Tris-HCl, 0.9% NaCl, pH 7.5 at 4° C.). Plates were dried overnight at room temperature, ˜45 μl of MicroScint™-20 (Perkin Elmer) added and bound radioactivity quantitated via liquid scintillation spectroscopy. Inhibition curves and saturation isotherms were analyzed using GraphPad Prism Software package (GraphPad Software, Inc., San Diego, Calif.). IC50 values were generated from concentration response curves using the Sigmoidal Dose Response (variable slope) algorithm in Prism GraphPad. Kd and Bmax values for the radioligand were generated from saturation isotherms using the Saturation Binding Global Fit algorithm in Prism GraphPad. pKi (negative decadic logarithm of Ki) values for test compounds were calculated from the best-fit IC50 values, and the Kd value of the radioligand, using the Cheng-Prusoff equation (Cheng & Prusoff (1973) Biochem. Pharmacol. 22(23):3099-3108): Ki=IC50/(1+[L]/Kd), where [L]=concentration radioligand.

NET = NET (Homo sapiens, UniProt P23975); assay: hNET radioligand binding assay (3H-nisoxetine); parameters: expressed in transfected cells; host or cells: HEK-293; settings: hNET membranes (HEK-293), 1.0 nM 3H-nisoxetine; for Ki: read-out: NET pKi (converted)
Experimental: as §1, §2, §3, §4, §5

Chain of SERT (P31645 whole entry): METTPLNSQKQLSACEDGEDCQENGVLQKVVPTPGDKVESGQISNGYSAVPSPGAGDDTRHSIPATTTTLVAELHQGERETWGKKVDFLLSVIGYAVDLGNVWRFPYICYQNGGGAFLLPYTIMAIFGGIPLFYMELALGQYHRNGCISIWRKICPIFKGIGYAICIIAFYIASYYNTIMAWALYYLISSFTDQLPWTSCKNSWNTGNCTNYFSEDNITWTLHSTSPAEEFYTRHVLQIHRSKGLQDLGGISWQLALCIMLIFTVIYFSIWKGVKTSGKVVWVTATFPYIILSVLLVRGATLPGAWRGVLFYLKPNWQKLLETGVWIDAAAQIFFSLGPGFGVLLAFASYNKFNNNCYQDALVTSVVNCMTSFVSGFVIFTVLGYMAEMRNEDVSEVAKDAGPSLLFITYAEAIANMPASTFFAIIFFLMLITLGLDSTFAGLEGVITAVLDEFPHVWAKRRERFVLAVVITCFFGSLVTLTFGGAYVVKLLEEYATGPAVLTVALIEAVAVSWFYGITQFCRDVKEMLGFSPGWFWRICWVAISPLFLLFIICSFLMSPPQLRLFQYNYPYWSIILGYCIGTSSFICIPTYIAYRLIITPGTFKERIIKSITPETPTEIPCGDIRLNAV
Chain of NET (P23975 whole entry): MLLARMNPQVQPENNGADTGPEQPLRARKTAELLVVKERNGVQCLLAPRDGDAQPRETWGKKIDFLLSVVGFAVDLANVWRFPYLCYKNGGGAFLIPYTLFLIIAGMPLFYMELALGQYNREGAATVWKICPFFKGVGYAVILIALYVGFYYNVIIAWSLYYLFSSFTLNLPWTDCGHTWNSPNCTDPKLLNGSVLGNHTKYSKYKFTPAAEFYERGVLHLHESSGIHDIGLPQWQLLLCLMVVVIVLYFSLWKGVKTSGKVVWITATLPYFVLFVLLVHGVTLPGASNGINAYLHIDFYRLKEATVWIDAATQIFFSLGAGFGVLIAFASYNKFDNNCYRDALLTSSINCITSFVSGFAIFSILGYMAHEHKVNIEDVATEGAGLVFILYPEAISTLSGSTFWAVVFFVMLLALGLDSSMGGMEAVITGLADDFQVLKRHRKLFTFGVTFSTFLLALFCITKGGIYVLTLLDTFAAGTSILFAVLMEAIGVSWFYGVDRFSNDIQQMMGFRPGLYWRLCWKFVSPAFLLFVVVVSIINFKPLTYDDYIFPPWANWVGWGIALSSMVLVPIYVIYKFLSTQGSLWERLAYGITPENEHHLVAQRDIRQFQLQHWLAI

Ki (SERT) [µM]	Ki (NET) [µM]	SMILES	SERT pKi (SERT)	NET pKi (NET)
		FC(F)(F)c1cnc(O[C@@H](c2ccccc2)[C@H]2CCNC2)c(Cl)c1.O=C(O)C(F)(F)F [14-25]	≧7.0	≧5.0
		Clc1ccc(O[C@H](c2ccccc2)[C@@H]2CCNC2)nc1.O=C(O)C(F)(F)F [14-27]	≧7.0	≧7.0
		Fc1cc(Cl)cnc1O[C@@H](c1ccccc1)[C@H]1CCNC1.O=C(O)C(F)(F)F [14-28]	≧7.0	≧5.0
		Fc1ccc(O[C@@H](c2ccccc2)[C@H]2CCNC2)nc1.O=C(O)C(F)(F)F [14-29]	≧7.0	≧7.0
		Cc1ccc(O[C@@H](c2ccccc2)[C@H]2CCNC2)nc1.O=C(O)C(F)(F)F [14-30]	≧5.0	≧7.0
		Cc1cnc(O[C@@H](c2ccccc2)[C@H]2CCNC2)c(Br)c1.O=C(O)C(F)(F)F [14-31]	≧7.0	≧7.0
		Cc1ccnc(OC(c2ccccc2)C2CCNC2)c1 (centres unmarked) [14-32]	≧7.0	≧7.0
		FC(F)(F)c1cccnc1O[C@H](c1ccccc1)[C@@H]1CCNC1.O=C(O)C(F)(F)F [14-33]	≧5.0	≧5.0
		FC(F)(F)c1cccnc1O[C@@H](c1ccccc1)[C@H]1CCNC1.O=C(O)C(F)(F)F [14-34]	≧7.0	≧5.0
		Fc1cccnc1O[C@H](c1ccccc1)[C@@H]1CCNC1.O=C(O)C(F)(F)F [14-35]	≧5.0	≧7.0
		Cc1cccnc1OC(c1ccccc1)C1CCNC1 (centres unmarked) [14-37]	≧5.0	≧5.0
		COc1cccnc1O[C@@H](c1ccccc1)[C@H]1CCNC1.O=C(O)C(F)(F)F [14-39]	≧7.0	≧5.0
≤ 10	≤ 0.1	c1ccc(C(Oc2ccccn2)C2CCNC2)cc1 (centres unmarked) [14-40]		
		O=C(O)C(F)(F)F.c1ccc([C@H](Oc2ccccn2)[C@H]2CCNC2)cc1 [14-41]	≧7.0	≧7.0
		Fc1nc(OC(c2ccccc2)C2CCNC2)c(F)c(F)c1F (centres unmarked) [14-42]	≧5.0	≧5.0
≤ 0.1	≤ 0.1	Clc1ccc(O[C@@H](c2ccccc2)C2CCNC2)c(Cl)n1 (some centres unmarked) [15-1]		
		Clc1ccc(O[C@@H](c2ccccc2)[C@H]2CCNC2)c(Cl)n1.O=C(O)C(F)(F)F [15-3]	≧7.0	≧7.0
≤ 0.1	≤ 0.1	Clc1ncccc1O[C@@H](c1ccccc1)C1CCNC1 (some centres unmarked) [15-4]		
		Clc1ncccc1O[C@H](c1ccccc1)[C@@H]1CCNC1.O=C(O)C(F)(F)F [15-5]	≧7.0	≧7.0
		Clc1ncccc1O[C@@H](c1ccccc1)[C@H]1CCNC1.O=C(O)C(F)(F)F [15-6]	≧7.0	≧7.0
		Fc1ncccc1O[C@@H](c1ccccc1)[C@H]1CCNC1.O=C(O)C(F)(F)F [15-8]	≧7.0	≧7.0
		Cc1ncccc1O[C@@H](c1ccccc1)[C@H]1CCNC1.O=C(O)C(F)(F)F [15-9]	≧5.0	≧5.0
		FC(F)(F)COc1ncccc1O[C@@H](c1ccccc1)[C@H]1CCNC1.O=C(O)C(F)(F)F [15-11]	≧7.0	≧7.0
		O=C(O)C(F)(F)F.c1ccc([C@H](Oc2cccnc2OC2CCCC2)[C@H]2CCNC2)cc1 [15-13]	≧7.0	≧7.0
≤ 0.1	≤ 0.1	COc1ncccc1O[C@@H](c1ccccc1)C1CCNC1 (some centres unmarked) [15-16]		
		COc1ncccc1O[C@@H](c1ccccc1)[C@H]1CCNC1.O=C(O)C(F)(F)F [15-17]	≧7.0	≧7.0
		CCCOc1ncccc1O[C@@H](c1ccccc1)[C@H]1CCNC1.O=C(O)C(F)(F)F [15-19]	≧7.0	≧7.0
		CCOc1ncccc1O[C@@H](c1ccccc1)[C@H]1CCNC1.O=C(O)C(F)(F)F [15-20]	≧7.0	≧7.0

Ki (SERT) [µM]	Ki (NET) [µM]	SMILES	SERT pKi (SERT)	NET pKi (NET)
		Fc1cc(O[C@@H](c2ccccc2)[C@H]2CCNC2)cnc1F.O=C(O)C(F)(F)F [15-21]	≧5.0	≧7.0
≤ 0.1	≤ 10	Clc1ccc(O[C@@H](c2ccccc2)C2CCNC2)cn1 (some centres unmarked) [15-22]		
		Clc1ccc(O[C@H](c2ccccc2)[C@@H]2CCNC2)cn1.O=C(O)C(F)(F)F [15-23]	≧7.0	≧5.0
		Clc1ccc(O[C@@H](c2ccccc2)[C@H]2CCNC2)cn1.O=C(O)C(F)(F)F [15-24]	≧7.0	≧5.0
≤ 0.1	≤ 10	Fc1ccc(O[C@@H](c2ccccc2)C2CCNC2)cn1 (some centres unmarked) [15-25]		
		Fc1ccc(O[C@H](c2ccccc2)[C@@H]2CCNC2)cn1.O=C(O)C(F)(F)F [15-26]	≧7.0	≧5.0
		Fc1ccc(O[C@@H](c2ccccc2)[C@H]2CCNC2)cn1.O=C(O)C(F)(F)F [15-27]	≧7.0	≧5.0
		Cc1ccc(OC(c2ccccc2)C2CCNC2)cn1 (centres unmarked) [15-28]	≧7.0	≧5.0
≤ 0.1	≤ 10	COc1ccc(O[C@@H](c2ccccc2)C2CCNC2)cn1 (some centres unmarked) [15-29]		
		COc1ccc(O[C@@H](c2ccccc2)[C@H]2CCNC2)cn1.O=C(O)C(F)(F)F [15-31]	≧7.0	≧5.0
≤ 0.1	≤ 10	c1ccc(C(Oc2cccnc2)C2CCNC2)cc1 (centres unmarked) [15-32]		
		Cc1c(O[C@@H](c2ccccc2)[C@H]2CCNC2)ccnc1Cl.O=C(O)C(F)(F)F [16-1]	≧7.0	≧5.0
		Clc1cc(O[C@@H](c2ccccc2)[C@H]2CCNC2)cc(Cl)n1.O=C(O)C(F)(F)F [16-2]	≧7.0	≧5.0
≤ 0.1	≤ 10	Clc1cc(O[C@@H](c2ccccc2)C2CCNC2)ccn1 (some centres unmarked) [16-3]		
		Fc1cc(O[C@@H](c2ccccc2)[C@H]2CCNC2)ccn1.O=C(O)C(F)(F)F [16-6]	≧5.0	≧5.0
		Fc1cncc([C@H](Oc2cccc3ccccc23)[C@H]2CCNC2)c1.O=C(O)C(F)(F)F [19-2]	≧7.0	≧7.0
		O=C(O)C(F)(F)F.c1ccc2c(O[C@@H](c3ncco3)[C@H]3CCNC3)cccc2c1 [19-3]	≧7.0	≧7.0
		O=C(O)C(F)(F)F.c1ccc2cc(O[C@@H](c3ncco3)[C@H]3CCNC3)ccc2c1 [20-1]	≧7.0	≧7.0
		Fc1cncc([C@H](Oc2ccc3ccccc3c2)[C@H]2CCNC2)c1.O=C(O)C(F)(F)F [20-3]	≧7.0	≧7.0
≤ 0.1	≤ 0.1	c1ccc(C(Oc2cccc3ccccc23)C2CCNC2)cc1 (centres unmarked) [21-1]		
≤ 0.1	≤ 0.1	Cc1ccccc1C(Oc1cccc2ccccc12)C1CCNC1 (centres unmarked) [21-3]		
≤ 0.1	≤ 0.1	Fc1cccc(C(Oc2cccc3ccccc23)C2CCNC2)c1 (centres unmarked) [21-4]		
≤ 0.1	≤ 0.1	Clc1cccc(C(Oc2cccc3ccccc23)C2CCNC2)c1 (centres unmarked) [21-5]		
≤ 0.1	≤ 0.1	COc1cccc(C(Oc2cccc3ccccc23)C2CCNC2)c1 (centres unmarked) [21-6]		
≤ 0.1	≤ 10	FC(F)(F)Oc1cccc(C(Oc2cccc3ccccc23)C2CCNC2)c1 (centres unmarked) [21-7]		
≤ 0.1	≤ 0.1	COc1ccc2ccccc2c1OC(c1ccccc1)C1CCNC1 (centres unmarked) [21-8]		
≤ 0.1	≤ 0.1	Fc1ccc(O[C@@H](c2ccccc2)C2CCNC2)c2ccccc12 (some centres unmarked) [21-9]		

From patent publication US20100267743A1, “3-(PHENOXYPYRROLIDIN-3-YL-METHYL)HETEROARYL, 3-(PHENYLPYRROLIDIN-3-YLMETHOXY)HETEROARYL, AND 3-(HETEROARYLPYRROLIDIN-3-YLMETHOXY)HETEROARYL COMPOUNDS” (priority 2009, published 2010)
